According to patent publication US11365161B2, “Urea ammonium sulphate-based composition and method for the manufacture thereof” (YARA INTERNATIONAL ASA, priority 2018, dated 2022):
“Also recorded” adds a separate entry of the source.

Legend:
Assay type in all cases: physicochemical
[1] = Volatilization measurements (ammonia release, 2 L diffusion kit, Draeger tube); details: YaraVera Amidas product comprising 462 ppm nBTPT, treated with stabilizer (FIG. 1, Table 1)
Description: 1. Volatilization Measurements (Ammonia Release 2 L Diffusion Kit) […] Through the lid, a […] tube is placed for the measurement of vol % ammonia. The […] tube turns from yellow to bleu/purple when ammonia is absorbed by the tube. The amount of vol % ammonia released can be followed in time. Experiment 1 defines the problem.

[2] = Stability of nBTPT on urea ammonium sulphate (YaraVera Amidas) during storage, HPLC analysis of nBTPT content; details: for Stabilizing effect on nBTPT (MgSO4/MgO combinations): Experiment 4: YaraVera Amidas product comprising 462 ppm nBTPT (FIG. 4)
Protocol: For lab scale experiments, 1.2 kg of solid fertilizer material was added to a lab scale drum. […] A residence time of 10 minutes was applied and the rotating speed of the drum was consequently the same in each experiment. […] Before use, the moisture-repellent coating was preheated to 80° C. Larger scale experiments with amounts up to 40 kg of fertilizer material were performed in a concrete mixer. The samples were stored under several conditions, dependent on the type of samples: • Bagged at room temperature (18-25° C.) • Bagged at 40° C. • Open to air at room temperature (18-25° C.) 3.

[3] = pH of MgSO4 grades

Compound: [O]=[Ca] [CaO, calcium oxide]
- Ammonia release [1]: producing ammonia

Compound: O=S(=O)([O-])[O-].[Ca+2] [CaSO4, CaSO4 anhydrous]
- Ammonia release [1]: no ammonia release

Compound: [O]=[Mg] [MgO, magnesium oxide, reference compound]
- Stabilizing effect on nBTPT (MgSO4/MgO combinations) [2]: more effective than CaO
- Ammonia release [1]: producing ammonia

Compound: O=S(=O)([O-])[O-].[Mg+2] [MgSO4 99.5%, MgSO4 anhydrous, >99.5%]
- pH [3]: 8.5

Compound: O=S(=O)([O-])[O-].[Mg+2] [MgSO4 99.999%, MgSO4 anhydrous, 99.999%]
- pH [3]: 6.1

Compound: O=S(=O)([O-])[O-].[Mg+2] [MgSO4, magnesium sulphate]
- Stabilizing effect on nBTPT in the presence of UAS ([2]; Experiment 2: open to air at room temperature 40 days (FIG. 2A) and in bags at 40 °C 8 days (FIG. 2B), 462 ppm nBTPT): comparable with the effect of the prior art compound (CaO)
- Stabilizing effect on nBTPT (MgSO4/MgO combinations) [2]: little effect
- Stabilizing effect at higher level of magnesium sulphate ([2]; more than 1 weight % magnesium sulphate in the composition): did not produce a proportionally better stabilizing effect
- Ammonia release [1]: no ammonia release; also recorded: no ammonia is generated

Compound: O=S(=O)([O-])[O-].[Na+].[Na+] [Na2SO4, reference compound]
- nBTPT stability on the YaraVera Amidas product ([2]; Experiment 3: open plastic containers at room temperature for 21 days, 462 ppm nBTPT (FIG. 3)): negative effect on the stability of nBTPT
